Measurements from ChEMBL document CHEMBL1131687, “Dienyl diketones as anticancer agents: synthesis and biological evaluation of some aromatic derivatives” (1999).
Values after ≈ are worked out from the molar mass of the structure shown.

Tests used:
Type in all cases: functional
HEp-2 = experiment: In vitro cytotoxicity against the growth of Hep-2 cell line; conditions: Homo sapiens, read-out: LD50 (the source's name)
[1] = In vitro cytotoxicity against the growth of Colon-205 cancer cell line; conditions: Homo sapiens, Cancer cell lines; read-out: LD50 (the source's name)
KB 3-1 = experiment: In vitro cytotoxicity against the growth of KB-cell line; conditions: Homo sapiens, read-out: LD50 (the source's name)
HeLa = experiment: In vitro cytotoxicity against the growth of HeLa-cell line; conditions: Homo sapiens, read-out: LD50 (the source's name)

| SMILES | CC50 (HEp-2) | CC50 [1] | CC50 (KB 3-1) | CC50 (HeLa) |
| --- | --- | --- | --- | --- |
| CCC(=O)/C=C/C=C\C(C)=O | > 10 µg/mL | > 10 µg/mL | > 10 µg/mL | > 10 µg/mL |
| CCC(=O)/C=C\C=C\C(=O)c1ccccc1 | > 10 µg/mL | 1 µg/mL (≈ 4.67 µM) | > 10 µg/mL | > 10 µg/mL |
| CCCCCCC(=O)/C=C\C=C\C(=O)c1ccc(C(=O)OC)cc1 | > 10 µg/mL | 0.8 µg/mL (≈ 2.44 µM) | > 10 µg/mL | > 10 µg/mL |
| CC(=O)/C=C\C=C\C(=O)c1ccccc1 | > 10 µg/mL | 1 µg/mL (≈ 4.99 µM) | 0.8 µg/mL (≈ 4 µM) | > 10 µg/mL |
| CCC(=O)/C=C/C=C\C(=O)CC(C)C | > 10 µg/mL | > 10 µg/mL | > 10 µg/mL | > 10 µg/mL |
| CCCCCCC(=O)/C=C/C=C/C(=O)c1ccc(C(=O)OC)cc1 | > 10 µg/mL | > 10 µg/mL | > 10 µg/mL | > 10 µg/mL |
